Assay results reported in ChEMBL document CHEMBL5352479, “Prenylated flavonoids with significant anti-hepatoma activity from Daphne giraldii and effects on Fibroblast Growth Factor Receptor 1 (FGFR1)” (Eur J Med Chem, 2023).

Legend:
HepG2 = assay: Cytotoxicity against human HepG2 cells assessed as inhibition of cell proliferation incubated for 48 hrs by MTT assay; assay type: functional, cell-based; conditions: HepG2, 48 h
Hep 3B2 [1] = assay: Induction of apoptosis in human Hep3B cells assessed as early apoptotic cells at 3 uM incubated for 48 hrs by Annexin V-FITC/PI staining based flow cytometry analysis (reference value: 1.26%); assay type: functional
Hep 3B2 [2] = assay: Induction of apoptosis in human Hep3B cells assessed as viable cells at 3 uM incubated for 48 hrs by Annexin V-FITC/PI staining based flow cytometry analysis (reference value: 87.1%); assay type: functional; conditions: read-out: Activity
Hep 3B2 [3] = assay: Cytotoxicity against human Hep3B cells assessed as inhibition of cell proliferation incubated for 48 hrs by MTT assay; assay type: functional, cell-based
Hep 3B2 [4] = assay: Induction of apoptosis in human Hep3B cells assessed as necrotic cells at 3 uM incubated for 48 hrs by Annexin V-FITC/PI staining based flow cytometry analysis (reference value: 6.12%); assay type: functional
Hep 3B2 [5] = assay: Induction of apoptosis in human Hep3B cells assessed as late apoptotic cells at 3 uM incubated for 48 hrs by Annexin V-FITC/PI staining based flow cytometry analysis (reference value: […]%); assay type: functional
Hep 3B2 [6] = assay: Induction of apoptosis in human Hep3B cells assessed as late apoptotic cells at 3 uM incubated for 48 hrs by Annexin V-FITC/PI staining based flow cytometry analysis (reference value: 0.117%); assay type: functional
Hep 3B2 [7] = assay: Induction of apoptosis in human Hep3B cells assessed as early apoptotic cells at 3 uM incubated for 48 hrs by Annexin V-FITC/PI staining based flow cytometry analysis (reference value: 4.54%); assay type: functional
Hep 3B2 [8] = assay: Induction of apoptosis in human Hep3B cells assessed as necrotic cells at 3 uM incubated for 48 hrs by Annexin V-FITC/PI staining based flow cytometry analysis (reference value: 0%); assay type: functional
Hep 3B2 [9] = assay: Induction of apoptosis in human Hep3B cells assessed as viable cells at 3 uM incubated for 48 hrs by Annexin V-FITC/PI staining based flow cytometry analysis (reference value: 95.3%); assay type: functional; conditions: read-out: Activity

Row | SMILES | IC50 (HepG2) [µM] | IC50 (Hep 3B2 [3]) [µM] | further results
1 | COc1c(-c2ccc(O)c(CC=C(C)C)c2)oc2cc(O)cc(O)c2c1=O | 50.5 | 0.99 | Activity (Hep 3B2 [1]): 1.97%; viability at 3 µM (Hep 3B2 [2]): 87.1%; Activity (Hep 3B2 [4]): 2.29%; Activity (Hep 3B2 [5]): 8.68%
2 | COc1c(-c2ccc(O)c(O)c2)oc2c(CC=C(C)C)c(O)c(CC=C(C)C)c(O)c2c1=O | 43.3 | 17.7 | –
3 | COc1c(-c2cc(O)c(O)c(CC=C(C)C)c2)oc2c3c(cc(O)c2c1=O)OC(C(C)(C)O)C3 (centres undefined) | > 50 | 3.62 | –
4 | CC(C)=CCc1cc([C@H]2Oc3cc(O)ccc3C[C@H]2O)cc(CC=C(C)C)c1O | > 50 | > 50 | –
5 | COc1c(-c2cc(O)c(O)c(CC=C(C)C)c2)oc2c(CC=C(C)C)c(O)cc(O)c2c1=O | 32.6 | 1.07 | Activity (Hep 3B2 [6]): 9.35%; Activity (Hep 3B2 [7]): 41.2%; Activity (Hep 3B2 [8]): 0.121%; viability at 3 µM (Hep 3B2 [9]): 49.3%
6 | C=C(C)C(O)Cc1cc(-c2oc3c(CC=C(C)C)c(O)cc(O)c3c(=O)c2OC)cc(O)c1O (centres undefined) | > 50 | 1.05 | Activity (Hep 3B2 [1]): 6.97%; viability at 3 µM (Hep 3B2 [2]): 14.2%; Activity (Hep 3B2 [4]): 2.75%; Activity (Hep 3B2 [5]): 76%
7 | COC1=C(c2ccc(O)cc2)Oc2c(CC=C(C)C)c(O)cc(O)c2C1O (centres undefined) | 13.6 | 3.96 | –
8 | COc1c(-c2ccc(O)c(O)c2)oc2c(CC=C(C)C)c(O)cc(O)c2c1=O | > 50 | 2.39 | –
9 | CC(C)=CCc1cc([C@H]2Oc3c(CC=C(C)C)c(O)cc(O)c3C(=O)[C@@H]2O)cc(CC=C(C)C)c1O | > 50 | > 50 | –
10 | CC(C)=CCc1cc([C@@H]2Oc3c(CC=C(C)C)c(O)cc(O)c3C(=O)[C@H]2O)cc(CC=C(C)C)c1O | > 50 | > 50 | –
11 | COc1c(-c2cc(O)c(O)c(CC=C(C)C)c2CC=C(C)C)oc2cc(O)cc(O)c2c1=O | 39.1 | 33.5 | –
12 | COc1c(-c2ccc(O)c(O)c2)oc2c3c(c(CC=C(C)C)c(O)c2c1=O)OC(C(C)(C)O)C3 (centres undefined) | 26.9 | 8.89 | –
13 | COc1c(-c2ccc(O)c(CC=C(C)C)c2)oc2c(CC=C(C)C)c(O)cc(O)c2c1=O | > 50 | 2.31 | Activity (Hep 3B2 [6]): 10.7%; Activity (Hep 3B2 [7]): 37.4%; Activity (Hep 3B2 [8]): 0.097%; viability at 3 µM (Hep 3B2 [9]): 51.9%
14 | CC1(C)C=Cc2cc(-c3oc4cc(O)cc(O)c4c(=O)c3O)cc(O)c2O1 | > 50 | 28.2 | –
15 | C=C(C)C(O)Cc1c(O)c(CC=C(C)C)c2oc(-c3ccc(O)c(O)c3)c(OC)c(=O)c2c1O (centres undefined) | > 50 | 37.1 | –
16 | CC1(C)Oc2ccc(-c3oc4cc(O)cc(O)c4c(=O)c3O)cc2CC1O (centres undefined) | > 50 | 9.55 | –
17 | COc1c(-c2ccc(O)c(O)c2)oc2c(C/C=C(\C)CCC=C(C)C)c(O)cc(O)c2c1=O | 30.4 | 4.8 | –
18 | C=C(C)C(O)Cc1cc(-c2oc3c(CC=C(C)C)c(O)cc(O)c3c(=O)c2OC)ccc1O (centres undefined) | 42.2 | 0.41 | Activity (Hep 3B2 [1]): 19.6%; viability at 3 µM (Hep 3B2 [2]): 59.7%; Activity (Hep 3B2 [4]): 0.923%; Activity (Hep 3B2 [5]): 19.7%
19 | COc1c(-c2cc(O)c3c(c2)CC(C(C)(C)O)O3)oc2c(CC=C(C)C)c(O)cc(O)c2c1=O (centres undefined) | 47.4 | 0.49 | Activity (Hep 3B2 [1]): 15.4%; viability at 3 µM (Hep 3B2 [2]): 33.8%; Activity (Hep 3B2 [4]): 2.55%; Activity (Hep 3B2 [5]): 48.2%
20 | COc1c(-c2cc(O)c3c(c2)CC(O)C(C)(C)O3)oc2c(CC=C(C)C)c(O)cc(O)c2c1=O (centres undefined) | 49.1 | 0.63 | Activity (Hep 3B2 [1]): 21.9%; viability at 3 µM (Hep 3B2 [2]): 23.3%; Activity (Hep 3B2 [4]): 2.34%; Activity (Hep 3B2 [5]): 52.4%
21 | COc1c(-c2cc3c(c(O)c2CC=C(C)C)OC(C)(C)C=C3)oc2c(CC=C(C)C)c(O)cc(O)c2c1=O | 30.7 | 6.37 | –
22 | CC(C)=CCc1cc(-c2oc3c(CC=C(C)C)c(O)cc(O)c3c(=O)c2O)ccc1O [BROUSSOFLAVONOL F] | 30.8 | 1.15 | Activity (Hep 3B2 [6]): 25.5%; Activity (Hep 3B2 [7]): 19.1%; Activity (Hep 3B2 [8]): 0.251%; viability at 3 µM (Hep 3B2 [9]): 55.1%
23 | CC(C)=CCc1cc(-c2oc3cc(O)cc(O)c3c(=O)c2O)ccc1O [ISOLICOFLAVONOL] | 44.7 | 11.5 | –
24 | CNC(=O)c1cc(Oc2ccc(NC(=O)Nc3ccc(Cl)c(C(F)(F)F)c3)cc2)ccn1 [SORAFENIB] | – | 8.55 | –
